Results: patent publication US12171776B2, “Methods for treatment and prophylaxis of HIV and AIDS” (Merck Sharp & Dohme LLC, priority 2016, dated 2024)
Like-named read-outs stand apart in the source and are kept apart here.

Tests used:
[1] = Phase I multiple rising dose pharmacokinetics, three once weekly oral doses of EFdA capsules in healthy adults; format: in vivo, human; details: for AUC0-168 hr / Cmax / Tmax / half-life / AUC(0-t): healthy fasted subjects; for AUC0-168 hr / Cmax / half-life / AUC(0-t): geometric mean (%GCV); for plasma concentration (below LLQ): 10 mg dose, all subjects; for Cmax accumulation ratio Week 3/Week 1: geometric mean (min, max); for Tmax / half-life / AUC(0-t): human; for Tmax: po, median (min, max); for AUC(0-t): read-out: AUC0-168 hr
Method: (§1) Pharmacokinetics of EFdA Following Administration of Oral Doses in Healthy Humans.
(§2) The pharmacokinetics of EFdA were evaluated in Phase I single and multiple rising dose studies. In the single dose study, single oral doses of the oral suspension of EFdA from 5 to 400 mg were administered to three alternating panels of 8 healthy adult subjects. Within each panel, subjects were administered single doses of EFdA (n=6) or matching placebo (n=2) in a blinded fashion in up to 3 treatment periods. Panel A received 15 mg and 200 mg. Panel B received 30 mg, 400 mg, and 30 mg with food. Panel C received 100 mg and 5 mg. In the multiple rising dose study, multiple doses of EFdA oral capsules were administered to three panels of 8 healthy adult subjects. Within each panel, subjects were administered three once weekly doses of EFdA (n=6) or matching placebo (n=2) on Days 1, 8, and 15. Panel A received 10 mg. Panel B received 30 mg, and Panel C received 100 mg.

[2] = in vitro; lymphoid derived cell lines and peripheral blood mononuclear cells; Stoddart et al. 2015; cited from earlier work
[3] = test system: SIVmac251; experiment: Once-weekly efficacy in an SIV infected rhesus monkey model of HIV-infection; format: in vivo; details: SIV-infected monkeys
Method: Once-Weekly Efficacy in an SIV Infected Rhesus Monkey Model of HIV-Infection.
Oral efficacy studies were conducted at New Iberia Research Center (NIRC), Lafayette, Louisiana Following treatment with BAYTRIL® (5 mg/kg, IM, SID) for 5 days, 20 monkeys were inoculated intravenously with SIVmac251. After 3 days, venous blood was collected every 2-5 days (2× per week) for viral load testing and monitored to stable viremia (wherein 3 consecutive samples were within 3-fold of each other following acute viremia peak). Plasma SIV viral RNA levels were determined using a branched DNA technique at Siemens Diagnostics, Berkeley, California.
Following determination of stable viremia, SIV-infected monkeys were randomized by age, weight, and viral load (n=3 per group). A 2-arm adaptive design was employed in which results from Arm 1 informed the doses for Arm 2. In Arm 1, animals received two once-weekly doses of vehicle, 1.3 mg/kg EFdA, or 13 mg/kg EFdA administered via oral gavage. In Arm 2, animals received 3.9 mg/kg or 18.2 mg/kg EFdA once-weekly or 0.19 mg/kg EFdA once daily for two weeks. Blood (4 ml) was drawn for viral load determinations during the treatment period on days −2, 0 (dosing day), 1, 2, 3, 5, 7 (dosing day), 8, 9, 10, 12, and 14, and then two times per week for 3 weeks during the washout period. In addition, blood (1 ml) was drawn on days 0 (2 hrs post dose), 1 (24 hr post dose), 7 (2 hrs post dose), and 8 (24 hrs post dose) for EFdA pharmacokinetic assessment.
SIV RNA for genotyping was isolated from 140 μl plasma using the QIAamp Viral RNA Mini kit (Cat #52904/52906). The reverse transcriptase region of SIVmac251 was reverse transcribed and amplified using SuperScript III RT/Platinum polymerase, primers S251RTF1 ([…] [2732-2751]) and S251RTR1 ([…] [4206-4225]) and 8 μl template RNA in 20 μl reactions. A nested PCR reaction was carried out using 3.5 μl of the product from the first reaction with TaKaRa LA Taq and primers S251RTF2 ([…] [2750-2769]) and S251RTR2 ([…] [4169-4188]) in 50 μl reactions. After verifying size of ˜1.5 kb by gel electrophoresis, PCR products were purified using ExoSAP-IT (Affymetrix; cat #78201) and adjusted to 15 ng/ml. PCR products (10 μl) were mixed with 5 μl 5 μM sequencing primers S251RTS5 ([…] [2760-2779]), s251RTS6 ([…] [3266-3285]), or S251RTS7 ([…] [3755-3774]). DNA sequencing was carried out at Genewiz (115 Corporate Blvd, South Plainfield, NJ 07080).

[4] = Phase I single rising dose pharmacokinetics of oral EFdA suspension in healthy adults; format: in vivo, human
Method: as §1, §2

[5] = test system: HIV-1
Description: The single dose monotherapy efficacy of EFDA is currently being evaluated in HIV-1 patients naïve to anti-retroviral treatment.

[6] = test system: SIV; details: PBMCs isolated from uninfected monkeys 24 hr after drug administration; Stoddart et al. 2015; cited from earlier work
[7] = EFdA-TP in PBMCs, EFdA 10 mg oral once weekly, Week 1
[8] = EFdA-TP in PBMCs, EFdA 30 mg oral once weekly, Week 1
[9] = EFdA-TP in PBMCs, EFdA 30 mg oral once weekly, Week 3
[10] = EFdA-TP in PBMCs, EFdA 100 mg oral once weekly, Week 1
[11] = EFdA-TP in PBMCs, EFdA 100 mg oral once weekly, Week 3
[12] = PBMCs, following multiple doses of 30 mg and 100 mg
[13] = EFdA in plasma, 30 mg oral once weekly, Week 3
[14] = EFdA in plasma, 100 mg oral once weekly, Week 3
[15] = single 10 mg dose, HIV-1 patients, plasma HIV-1 RNA, N=6
[16] = single 10 mg dose, adjusted by pooled historical placebo

**Q.** For C#C[C@]1(COP(=O)(O)OP(=O)(O)OP(=O)(O)O)O[C@@H](n2cnc3c(N)nc(F)nc32)C[C@@H]1O [EFdA-TP, 4′-ethynyl-2-fluoro-2′-deoxyadenosine triphosphate], which exposure versus dose ([1]; EFdA-TP in PBMC, EFdA 10, 30, 100 mg once weekly) is on record?
**A.** generally dose-proportional

**Q.** And the AUC0-168 hr [1, 7]?
**A.** 341 (21.2) hr * pmo1/10^6 cells

**Q.** And the Cmax [1, 7]?
**A.** 3.78 (15.3) pmo1/10^6 cells

**Q.** And the AUC0-168 hr [1, 8]?
**A.** 1160 (41.5) hr * pmo1/10^6 cells

**Q.** And the Cmax [1, 8]?
**A.** 13.2 (51.3) pmo1/10^6 cells

**Q.** And the AUC0-168 hr [1, 9]?
**A.** 1570 (12.3) hr * pmo1/10^6 cells

**Q.** What about the Cmax [1, 9] of the same molecule?
**A.** 19.6 (13.7) pmo1/10^6 cells

**Q.** What about the AUC0-168 hr [1, 10] of the same molecule?
**A.** 3020 (31.3) hr * pmo1/10^6 cells

**Q.** And the Cmax [1, 10]?
**A.** 27.9 (21.2) pmo1/10^6 cells

**Q.** And the AUC0-168 hr [1, 11]?
**A.** 4580 (17.6) hr * pmo1/10^6 cells

**Q.** What about the Cmax [1, 11] of the same molecule?
**A.** 43.0 (16.7) pmo1/10^6 cells

**Q.** And the “accumulation of EFdA-TP AUC0-168hr and Cmax” value [1, 12]?
**A.** modest degree of accumulation

**Q.** What about the “accumulation of EFdA-TP C168hr” value [1, 12] of the same molecule?
**A.** little to no accumulation

**Q.** What about the intracellular half-life [2] of the same molecule?
**A.** exceeds 72 hrs

**Q.** Which VL suppression maintained ([3]; 3.9 mg/kg QW oral, from Day 7 to Day 14) does the source give for C#C[C@]1(CO)O[C@@H](n2cnc3c(N)nc(F)nc32)C[C@@H]1O [EFdA, 4′-Ethynyl-2-fluoro-2′-deoxyadenosine] here?
**A.** 7 days

**Q.** What about the VL drop ([3]; 3.9 to 18.2 mg/kg QW oral) of the same molecule?
**A.** close to maximal

**Q.** What about the “VL during the wash-out period” value ([3]; after cessation of dosing) of the same molecule?
**A.** dose-dependent VL rebound

**Q.** And the control of viremia ([3]; once-weekly oral versus once-daily treatment)?
**A.** can control viremia with once-weekly oral administration as well as once-daily treatment

**Q.** What about the “effect of food on intracellular pharmacokinetics” value ([4]; 30 mg with food, high-fat meal, single dose) of the same molecule?
**A.** largely unaffected by a high-fat meal

**Q.** And the “plasma exposure versus dose” value ([4]; EFdA in plasma, between 5 and 400 mg single oral dose)?
**A.** approximately dose-proportional

**Q.** What about the “median Tmax” value ([4]; EFdA in plasma, single oral doses 5 to 400 mg, healthy adults) of the same molecule?
**A.** 0.5 h

**Q.** What about the “reduction of plasma Cmax in rapid initial phase” value ([4]; EFdA in plasma, within the first 6-12 hours, single oral dose) of the same molecule?
**A.** approximately 10 fold

**Q.** What about the half-life ([4]; human, EFdA in plasma, single oral doses 5 to 400 mg, healthy adults, read-out: apparent terminal half-life, slow terminal phase) of the same molecule?
**A.** 50 to 60 h

**Q.** What about the “plasma concentration (below LLQ)” value ([1]; at 48 hr post-dose and later on week 1) of the same molecule?
**A.** < 0.00341 µM

**Q.** And the “plasma concentration (below LLQ)” value ([1]; at 96 hr post-dose or later in week 3)?
**A.** < 0.00341 µM

**Q.** What about the Cmax ([1]; EFdA in plasma, 10 mg oral once weekly, Week 1, read-out: Cmax) of the same molecule?
**A.** 0.193 µM

**Q.** What about the Cmax ([1]; EFdA in plasma, 10 mg oral once weekly, Week 3, read-out: Cmax) of the same molecule?
**A.** 0.241 µM

**Q.** And the “Cmax accumulation ratio Week 3/Week 1” value ([1]; EFdA in plasma, 10 mg oral once weekly)?
**A.** 1.25 (0.70, 1.66)

**Q.** What about the Cmax ([1]; EFdA in plasma, 30 mg oral once weekly, Week 1, read-out: Cmax) of the same molecule?
**A.** 0.647 µM

**Q.** What about the Cmax ([1]; EFdA in plasma, 30 mg oral once weekly, Week 3, read-out: Cmax) of the same molecule?
**A.** 0.637 µM

**Q.** And the “Cmax accumulation ratio Week 3/Week 1” value ([1]; EFdA in plasma, 30 mg oral once weekly)?
**A.** 0.98 (0.73, 1.44)

**Q.** What about the Cmax ([1]; EFdA in plasma, 100 mg oral once weekly, Week 1, read-out: Cmax) of the same molecule?
**A.** 1.47 µM

**Q.** And the Cmax ([1]; EFdA in plasma, 100 mg oral once weekly, Week 3, read-out: Cmax)?
**A.** 1.85 µM

**Q.** And the “Cmax accumulation ratio Week 3/Week 1” value ([1]; EFdA in plasma, 100 mg oral once weekly)?
**A.** 1.26 (0.26, 3.59)

**Q.** What about the exposure versus dose ([1]; EFdA in plasma, 10, 30, 100 mg once weekly) of the same molecule?
**A.** generally dose-proportional

**Q.** And the Tmax ([1]; plasma, 10 mg, EFdA in plasma, 10 mg oral once weekly, Week 1)?
**A.** 1 h

**Q.** And the Tmax ([1]; plasma, 10 mg, EFdA in plasma, 10 mg oral once weekly, Week 3)?
**A.** 1 h

**Q.** And the Tmax ([1]; plasma, 30 mg, EFdA in plasma, 30 mg oral once weekly, Week 1)?
**A.** 1 h

**Q.** What about the Tmax ([1]; plasma, 30 mg, EFdA in plasma, 30 mg oral once weekly, Week 3) of the same molecule?
**A.** 1 h

**Q.** What about the Tmax ([1]; plasma, 100 mg, EFdA in plasma, 100 mg oral once weekly, Week 1) of the same molecule?
**A.** 2 h

**Q.** What about the Tmax ([1]; plasma, 100 mg, EFdA in plasma, 100 mg oral once weekly, Week 3) of the same molecule?
**A.** 1 h

**Q.** What about the half-life [1, 13] of the same molecule?
**A.** 74.1 h

**Q.** And the AUC(0-t) [1, 13]?
**A.** 3.97 µM·h

**Q.** What about the half-life [1, 14] of the same molecule?
**A.** 87.1 h

**Q.** And the AUC(0-t) [1, 14]?
**A.** 12 µM·h

**Q.** What about the “accumulation of EFdA in plasma” value ([1]; plasma, multiple once weekly doses) of the same molecule?
**A.** little to no accumulation

**Q.** And the “Change from Baseline in Viral Load, Max” value [5, 15]?
**A.** −1.31 log10 copies/mL

**Q.** And the “Change from Baseline in Viral Load, Median” value [5, 15]?
**A.** −1.63 log10 copies/mL

**Q.** And the “Change from Baseline in Viral Load, Min” value [5, 15]?
**A.** −1.97 log10 copies/mL

**Q.** And the “Change from Baseline in Viral Load, LS mean (95% CI)” value ([5]; single 10 mg dose, HIV-1 patients, plasma HIV-1 RNA, N=6, LDA model)?
**A.** −1.67 (−1.87, −1.47) log10 copies/mL

**Q.** And the “PP = Posterior Probability of true mean difference in plasma HIV-1 RNA reduction from baseline between EFDA and placebo at least 0.5 log10 copies/mL” value [5, 16]?
**A.** >99.9%

**Q.** And the “Placebo Corrected Change from Baseline in Viral Load, Posterior mean” value [5, 16]?
**A.** −1.64 log10 copies/mL

**Q.** And the “mean (95% CI) placebo adjusted VL reduction” value ([5]; single 10 mg dose, at 168 hours post-dose, HIV-1 patients)?
**A.** 1.67 log 10

**Q.** What about the “recrudescence of viral load” value ([5]; single 10 mg dose, through Day 10) of the same molecule?
**A.** no evidence of recrudescence

**Q.** What about the “mean VL reduction” value ([5]; single 10 mg dose, through Day 10, HIV-1 patients) of the same molecule?
**A.** 1.78 log 10

**Q.** What about the tolerability ([5]; single 10-mg dose, HIV-1 patients, limited number of mild/moderate adverse experiences) of the same molecule?
**A.** generally well tolerated

**Q.** What about the “susceptibility of PBMCs to SIV infection” value [6] of the same molecule?
**A.** refractory to SIV infection
